In PMC8328489, “Automated Synthesis and Initial Evaluation of (4′-Amino-5′,8′-difluoro-1′H-spiro[piperidine-4,2′-quinazolin]-1-yl)(4-[^18F]fluorophenyl)methanone for PET/MR Imaging of Inducible Nitric Oxide Synthase” (Molecular Imaging, 2021):

Columns and labels:
[1] = Radiolabeled metabolites in blood plasma (radio-HPLC); format: in vivo, Sprague-Dawley rats; details: rat, i.v.
Procedure: Adult Sprague-Dawley rats (n = 3) were anesthetized with 2% isoflurane (in oxygen) and injected with 194.87 MBq ± 22.61 MBq of [^18F]FBAT in the tail vein. Plasma was extracted from heparinized blood samples (0.25 mL) with 3x volumes of acetonitrile and analyzed with radio-HPLC; mobile phase: 40% MeCN/0.10% TEA in water at 1 mL/min. This method affords retention time of [^18F]FBAT which was 18.1–18.9 min. Fractions of [^18F]FBAT and metabolites were calculated for each sample based on the area under each peak. The radioactivity concentration in the whole blood and plasma was assayed using a gamma counter (Cobra, Packard, CT).

[2] = target: T1, iNOS (Mus musculus, UniProt P29477); assay: Pharmacokinetic two-compartment modeling of dynamic PET; format: in vivo, C57BL/6 mice; details: mouse whole brain
T1 construct: tracer to detect iNOS expression in mice injected with lipopolysaccharide (LPS) to induce brain inflammation; from tissue; host or cells: brain of living C57BL/6 mice (LPS-induced); fixed brain sections for IHC
Description: A time activity curve (TAC) for a carotid artery region of interest was used to determine the dynamic PET image-derived [^18F]FBAT input function in uncorrected blood plasma. The corresponding TACs for [^18F]FBAT were derived by applying images from mice administered [^18F]FBAT to the image-derived plasma TAC. Model parameters were estimated for influx constant k1 (mL/cm^3/min^−1), efflux (k2) (min^−1) rate of radioligand diffusion between plasma and brain compartment. Exchange between compartments k3 (min^−1) and k4 (min^−1) was also estimated. The net influx constant, Ki (min^−1), parameter that describes the rate of binding to the iNOS was calculated as (2) KiFBAT=k1FBAT×k3FBAT/k2FBAT+k3FBAT.
Compartmental modeling, pharmacokinetic analyses, and generation of pixel-by-pixel parametric images were accomplished using PMOD 4.0 software (PMOD Technologies Ltd., Zurich, Switzerland).

[3] = target: T1, iNOS; assay: Logan graphical analysis of dynamic PET (Vt); format: in vivo, C57BL/6 mice
Procedure: The dynamic PET imaging data were analyzed using Logan's model-independent graphical analysis to assess whether [^18F]FBAT PET/MR could be used to detect differences in expression of iNOS in brain regions (Cbra(t)). Cardiac blood TACs (Cref(t)) were used as the reference tissue. The slope of the linear portion of the Logan plot represents the total distribution (Vt). Then, the slope of the linear portion of the plot can be calculated using (1) ∫0tCreferencetdt/CreferenceT=DVR∫0tCbrain regiontdt/CreferenceT+C.

[4] = tested on: murine microglial BV2 cells; assay: In vitro [^18F]FBAT uptake assay; format: cell-based
Procedure: BV2 cells were cultured as described above, washed three times with fresh medium, pretreated with a selective iNOS inhibitor, aminoguanidine (AMG), (0, 1, or 0.1 mM) for 1 h, and then treated with cell culture media containing LPS and the inhibitor. At the indicated time points, the cells were washed thrice with fresh cell culture media, then incubated in fresh cell culture media continuing the radiotracer [^18F]FBAT at 0.37 MBq/mL for 15, 30, or 60 min, harvested by gentle scraping, and pelleted by centrifugation at 1500 g for 2 min. The weight of the cell pellet and 0.1 mL of the radioactive supernatant was determined. A Packard 5500 gamma counter (PerkinElmer, Billerica, MA, USA) was used to quantify radioactivity as cpm/g cells or cpm/mL media, respectively. Cell-to-medium radioactivity concentration ratios were calculated and plotted over time to evaluate the kinetics of accumulation of the radiotracer.
iNOS is the enzyme responsible for NO generation in BV2 cells; therefore, accumulation of [^18F]FBAT in BV2 cells before or after iNOS inhibitor versus NO production was also assessed.

[5] = Log P measurement (1-octanol/phosphate buffer, UV); format: physicochemical; details: 1-octanol / 0.02 M phosphate buffer; 1-octanol / phosphate buffer pH 7.4
Procedure: The partition coefficient of FBAT, determined between 1-octanol and 0.02 M phosphate buffer at pH 7.4, was measured by UV spectrophotometer (SPARK 10 M from Tecan) at wavelength 230 nm.

[6] = Whole-body dynamic PET/MR biodistribution and blood clearance; format: in vivo, C57BL/6 mice
Procedure: Mice (n = 30) were anesthetized with 2% isoflurane (in oxygen) and injected with [^18F]FBAT (11.1 MBq; 0.3 mCi) via the tail vein. Dynamic PET images were obtained in fully three-dimensional list mode for 30 min using a small animal SuperArgus 2r PET system (SEDECAL, Madrid, Spain) or 7T PETMR Inline (Bruker, Rheinstetten, Germany; energy window, 350-650 keV; timing window, 6 ns). Images were acquired every 10 s for 12 images, 60 s for three images, 300 s for three images, or 600 s for […]. The anatomical structure of the brain was imaged using T2 MRI. The MRI sequences included 0.5 mm thick T2 Turbo RARE high-resolution images (TR = 3000 ms, TE, 46 ms, matrix, 512 × 256, average, 40, slice number, 30, field of view, 20 × 10 mm).
Images were reconstructed by the Fourier rebinning algorithm and two-dimensional filtered back projection using a ramp filter with a cutoff at Nyquist. The regional radioactivity concentration (kBq/cc) of [^18F]FBAT was estimated from the mean pixel values within the region of interest (ROI) corresponding to MR images of various organs and regions of the brain. ROI for carotid artery, heart muscle, lung, liver, spleen, and kidney were defined and time activity curves (TACs) generated. TACs for whole brain, cortex, cerebellum, and brainstem were also determined as described above.
The concentration of radioactivity (kBq/cc, μCi/cc) was converted to standardized uptake value (SUV), and the mean and standard deviation (SD) of radiotracer accumulation values were calculated for different organs and regions of the brain. Data were analyzed with PMOD 4.0 software (PMOD Technologies Ltd., Zurich, Switzerland).

metabolites fraction in plasma ([1]; 120 min after injection): ~94.02% | parent compound fraction in plasma ([1]; first 5 minutes): 77.98% | k1 (influx rate constant) ([2]; LPS 5 mg/kg): 0.633 ± 0.002 min⁻¹ | k2 (efflux rate constant) ([2]; LPS 5 mg/kg): 0.608 ± 0.054 min⁻¹ | k3 ([2]; LPS 5 mg/kg): 0.006 ± 0.003^∗ min^−1 | k1 (influx rate constant) ([2]; control): 0.957 ± 0.250 min⁻¹ | k2 (efflux rate constant) ([2]; control): 0.777 ± 0.101 min⁻¹ | k3 ([2]; control): 2.86E − 05 ± 4.48E − 05 min^−1 | volume distribution Vt, brainstem ([3]; LPS 3 h): 0.435 ± 0.040^∗ mL/cm^3 | volume distribution Vt, cerebellum ([3]; LPS 3 h): 0.385 ± 0.016^∗∗ mL/cm^3 | volume distribution Vt, cortex ([3]; LPS 3 h): 0.391 ± 0.020^∗ mL/cm^3 | volume distribution Vt, whole brain ([3]; LPS 3 h): 0.404 ± 0.003 mL/cm^3 | volume distribution Vt, brainstem ([3]; LPS 3 h + AMG): 0.223 ± 0.036 mL/cm^3 | volume distribution Vt, cerebellum ([3]; LPS 3 h + AMG): 0.250 ± 0.055 mL/cm^3 | volume distribution Vt, cortex ([3]; LPS 3 h + AMG): 0.222 ± 0.024 mL/cm^3 | volume distribution Vt, whole brain ([3]; LPS 3 h + AMG): 0.203 ± 0.032 mL/cm^3 | volume distribution Vt, brainstem ([3]; LPS 24 h): 0.315 ± 0.065 mL/cm^3 | volume distribution Vt, cerebellum ([3]; LPS 24 h): 0.288 ± 0.090 mL/cm^3 | volume distribution Vt, cortex ([3]; LPS 24 h): 0.264 ± 0.036^∗ mL/cm^3 | volume distribution Vt, whole brain ([3]; LPS 24 h): 0.274 ± 0.068 mL/cm^3 | average volume distribution Vt in brain regions ([3]; LPS group (implied), blood as reference tissue): 0.40 ± 0.02 mL/cm^3 | Vt in the brain regions ([3]; control animals): 0.29 ± 0.05 mL/cm^3 | volume distribution Vt, brainstem ([3]; control mice): 0.295 ± 0.026 mL/cm^3 | volume distribution Vt, cerebellum ([3]; control mice): 0.227 ± 0.001 mL/cm^3 | volume distribution Vt, cortex ([3]; control mice): 0.278 ± 0.006 mL/cm^3 | volume distribution Vt, whole brain ([3]; control mice): 0.346 ± 0.012 mL/cm^3 | Vt, 3 h LPS group vs control group ([3]; whole brain, average): 1.4 ± 0.22 fold | logP [5]: 1.4 | level of [^18F]FBAT in blood (carotid ROI) ([6]; 30 min post i.v. injection, brain imaging study): 0.30 ± 0.06 SUV | radioactivity remaining in the blood pool ([6]; 30 min postinjection, whole-body biodistribution study): 0.298 ± 0.019 SUV | time of peak radioactivity in heart muscle ([6]; after injection): ≤ 1 min | blood clearance half-life, first phase (biexponential) ([6]; carotid, i.v.): 1.05 ± 0.58 min | blood clearance half-life, second phase (biexponential) ([6]; carotid, i.v.): 24.9 ± 7.46 min | time of peak accumulation in the lungs ([6]; postinjection): 1 to 2 min | accumulation of radioactivity in skeletal structures ([6]; up to 30 min postinjection): No accumulation
SMILES: NC1=NC2(CCN(C(=O)c3ccc([18F])cc3)CC2)Nc2c(F)ccc(F)c21 [[^18F]FBAT, (4′-amino-5′,8′-difluoro-1′H-spiro[piperidine-4,2′-quinazolin]-1-yl)(4-[^18F]fluorophenyl)methanone]
[^18F]FBAT accumulation, LPS-induced vs control BV2 cells ([4]; 60 min): more than 1.7 fold | cells-per-medium concentration ratio at plateau ([4]; LPS-induced BV2 cells, after 1 h): 180–200 | cells-per-medium concentration ratio at plateau ([4]; control BV2 cells): ~100
